Test results published in patent publication US9822086B2, “Process for the preparation of vortioxetine salts” (Egis Gyogyszergyar Zrt., priority 2014, dated 2017).

Assay: Particle size distribution (Malvern Mastersizer 3000) of starting and vortex-mill ground salts
Type: physicochemical
Procedure: The vortioxetine salts according to the present invention can be ground preferably in a vortex mill, if necessary. Such active ingredients ground in a vortex mill are used in the pharmaceutical compositions according to examples 20-23.
The distribution of the particle size is measured on a Malvern Mastersizer 3000 apparatus under the following conditions: […]

[1] = dispersing pressure 2.0 bar, hemicitrate salt
[2] = dispersing pressure 2.0 bar, monooxalate salt

1-[2-(2,4-dimethyl-phenylsulfanyl)-phenyl]-piperazine L-(+)-mandelic acid salt [Vortioxetine-L-mandalate ground]
Characteristic particle size d10 (dispersing pressure 2.0 bar): 0.5 (±0.6%) μm | Characteristic particle size d50 (dispersing pressure 2.0 bar): 2.1 (±0.2%) μm | Characteristic particle size d90 (dispersing pressure 2.0 bar): 5.0 (±0.9%) μm

1-[2-(2,4-dimethyl-phenylsulfanyl)-phenyl]-piperazine L-(+)-mandelic acid salt [Vortioxetine-L-mandalate]
Characteristic particle size d10 (dispersing pressure 2.0 bar): 8.6 (±0.2%) μm | Characteristic particle size d50 (dispersing pressure 2.0 bar): 41.5 (±0.2%) μm | Characteristic particle size d90 (dispersing pressure 2.0 bar): 114 (±0.9%) μm

1-[2-(2,4-dimethyl-phenylsulfanyl)-phenyl]-piperazine hemicitrate salt [Vortioxetine-hemicitrate ground]
Characteristic particle size d10 [1]: 0.6 (±0.7%) μm | Characteristic particle size d50 [1]: 2.9 (±0.2%) μm | Characteristic particle size d90 [1]: 9.1 (±1.1%) μm

1-[2-(2,4-dimethyl-phenylsulfanyl)-phenyl]-piperazine hemicitrate salt [Vortioxetine-hemicitrate]
Characteristic particle size d10 [1]: 5.3 (±0.4%) μm | Characteristic particle size d50 [1]: 25.9 (±0.7%) μm | Characteristic particle size d90 [1]: 83.6 (±0.4%) μm

Br.Cc1ccc(Sc2ccccc2N2CCNCC2)c(C)c1 [Vortioxetine-hydrobromide ground, 1-[2-(2,4-dimethyl-phenylsulfanyl)-phenyl]-piperazine hydrobromide salt, reference compound]
Characteristic particle size d10 (dispersing pressure 2.0 bar): 0.4 (±0.5%) μm | Characteristic particle size d50 (dispersing pressure 2.0 bar): 2.1 (±0.7%) μm | Characteristic particle size d90 (dispersing pressure 2.0 bar): 6.2 (±1.0%) μm

Br.Cc1ccc(Sc2ccccc2N2CCNCC2)c(C)c1 [Vortioxetine-hydrobromide, 1-[2-(2,4-dimethyl-phenylsulfanyl)-phenyl]-piperazine hydrobromide salt, reference compound]
Characteristic particle size d10 (dispersing pressure 4.0 bar): 1.4 (±2.2%) μm | Characteristic particle size d50 (dispersing pressure 4.0 bar): 10.8 (±1.6%) μm | Characteristic particle size d90 (dispersing pressure 4.0 bar): 98.6 (±4.3%) μm

Cc1ccc(Sc2ccccc2N2CCNCC2)c(C)c1.O=C(O)C(=O)O [Vortioxetine-monooxalate ground, 1-[2-(2,4-dimethyl-phenylsulfanyl)-phenyl]-piperazine monooxalate salt]
Characteristic particle size d10 [2]: 0.7 (±0.5%) μm | Characteristic particle size d50 [2]: 2.2 (±0.7%) μm | Characteristic particle size d90 [2]: 5.9 (±0.9%) μm

Cc1ccc(Sc2ccccc2N2CCNCC2)c(C)c1.O=C(O)C(=O)O [Vortioxetine-monooxalate, 1-[2-(2,4-dimethyl-phenylsulfanyl)-phenyl]-piperazine monooxalate salt]
Characteristic particle size d10 [2]: 2.0 (±0.3%) μm | Characteristic particle size d50 [2]: 6.8 (±0.5%) μm | Characteristic particle size d90 [2]: 21.14 (±0.7%) μm
